Measurements published in patent US6500846B1, “CDK inhibitors having flavone structure” (LG Chemical, Ltd., priority 1998, dated 2002).

Columns and labels:
CDK2/cyclin A = target: T1, CDK2/cyclin A (Homo sapiens, UniProt P24941); experiment: Inhibitory activity against CDK2/cyclin A enzyme (GST-RB phosphorylation, P32-γ-ATP, scintillation counting); format: biochemical; conditions: 100 μM ATP, GST-RB substrate, 30° C. 30 minutes
T1 construct: made in house; host or cells: insect cells infected with baculoviruses
Experimental: (§1) Analysis of inhibitory activity against CDK2/cyclin A and CDK4/cyclin D1 enzyme.
(§2) The inhibitory activity against CDK2 is measured by referring to Kitagawa, M. et al., Oncogene 9:2549, 1994 and the inhibitory activity against CDK4 is measured by referring to Carlson, B. A. et al., Cancer Research 56:2473,1996.
(§3) As for CDK2, either the extract from the insect cell infected both with baculovirus which expresses CDK2 gene and baculovirus which expresses cyclin A gene or the active enzyme which had been purified therefrom was used. CDK4 enzyme was also obtained from the insect cell infected both with baculovirus expressing CDK4 gene and baculovirus expressing cyclin D1 gene. As the substrate for CDK2, either histon H1 or Rb protein was used. Rb protein was also used as the substrate for CDK4.
(§4) Specifically the activities of enzymes CDK2/cyclin A and CDK4/cyclin D1 were determined according to the following procedure.
(§5) 100 ng of enzyme was reacted in a total 1000 μl of 20 mM Tris (pH 8.0), 100 mM NaCl, 10 mM MgCl2 buffer solution containing 20 μg of GST-RB protein, 100 μM of ATP and 5 μCi of P32-γ-ATP at 30° C. for 30 minutes. Then, the enzyme reaction was stopped by adding EDTA to a concentration of 20 mM. Subsequently, 30 μl of 50% glutathione bead (purchased from Pharmacia) was added to attach GST-RB to the bead, which was washed three times with 20mM Tris (pH 8.0), 100 mM NaCl, 10 mM EDTA solution, and then scintillation counting was carried out. To analyze the inhibitory activity of the compound, the inhibitor having a proper concentration was added to the enzyme reaction solution, and then the enzyme activity was measured according to the above method.
(§6) The inhibitory activity of the compound of formula (1) according to the present invention against CDK2 and CDK4 is represented as IC50 value. The compounds which are not included in Examples(compound 63, 64, 65 and 66) were synthesized and purified according to the same procedure as examples, and then IC50 thereof was measured.

CDK4/cyclin D1 = target: T2, CDK4/cyclin D1 (Homo sapiens, UniProt P11802); experiment: Inhibitory activity against CDK4/cyclin D1 enzyme (GST-RB phosphorylation, P32-γ-ATP, scintillation counting); format: biochemical; conditions: CDK4/cyclin D1, 100 μM ATP, GST-RB substrate, 30° C. 30 minutes
T2 construct: made in house; host or cells: insect cells infected with baculoviruses
T2 sequence (P11802 whole entry, species assumed): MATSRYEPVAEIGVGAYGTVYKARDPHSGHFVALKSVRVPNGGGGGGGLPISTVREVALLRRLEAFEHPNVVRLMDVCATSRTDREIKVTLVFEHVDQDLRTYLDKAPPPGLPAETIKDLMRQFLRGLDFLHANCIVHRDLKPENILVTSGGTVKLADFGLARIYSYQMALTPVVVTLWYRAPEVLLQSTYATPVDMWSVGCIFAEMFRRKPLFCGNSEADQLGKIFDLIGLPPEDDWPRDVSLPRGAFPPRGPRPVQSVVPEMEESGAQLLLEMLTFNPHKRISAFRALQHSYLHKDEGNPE
T2 sequence (P24385 whole entry partner, species assumed): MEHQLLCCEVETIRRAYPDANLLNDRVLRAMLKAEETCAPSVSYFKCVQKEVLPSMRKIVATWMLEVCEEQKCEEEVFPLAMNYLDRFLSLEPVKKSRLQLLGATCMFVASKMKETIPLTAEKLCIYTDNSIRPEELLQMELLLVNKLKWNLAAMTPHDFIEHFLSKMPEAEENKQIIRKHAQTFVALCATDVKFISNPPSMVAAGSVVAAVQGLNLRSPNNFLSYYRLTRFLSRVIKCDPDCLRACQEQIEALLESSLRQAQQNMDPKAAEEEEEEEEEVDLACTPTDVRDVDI
Experimental: as §1, §2, §3, §4, §5, §6

Structure (SMILES) | IC50 (CDK2/cyclin A) [µM] | IC50 (CDK4/cyclin D1) [µM]
O=c1c(O)c(-c2ccc(O)c(O)c2)oc2ccc(NS(=O)(=O)c3cc(Br)c(Br)s3)cc12 [Compound 34, 4,5-Dibromo-N-[2-(3,4-dihydroxyphenyl)-3-hydroxy-4-oxo-4H-chromen-6-yl]-2-thiophenesulfonamide] | 3 | 1
O=c1c(O)c(-c2ccc(O)c(O)c2)oc2ccc(NS(=O)(=O)c3ccc(-c4ccccc4)cc3)cc12 [Compound 35, N-[2-(3,4-Dihydroxyphenyl)-3-hydroxy-4-oxo-4H-chromen-6-yl]-[1,1′-biphenyl]-4-sulfonamide] | 4 | 2
O=c1c(O)c(-c2ccc(O)c(O)c2)oc2ccc(NS(=O)(=O)c3ccc(-c4ccon4)s3)cc12 [Compound 36, N-[2-(3,4-dihydroxyphenyl)-3-hydroxy-4-oxo-4H-chromen-6-yl]-5-(isooxazolyl)-2-thiophenesulfonamide] | 12 | 3.5
O=c1c(O)c(-c2ccc(O)c(O)c2)oc2ccc(NS(=O)(=O)c3ccc(-c4ccccn4)s3)cc12 [Compound 37, N-[2-(3,4-dihydroxyphenyl)-3-hydroxy-4-oxo-4H-chromen-6-yl]-5-(2-pyridinyl)-2-thiophenesulfonamide] | 12.5 | 4.2
O=c1c(O)c(-c2ccc(O)c(O)c2)oc2ccc(NS(=O)(=O)c3ccc(Cl)c([N+](=O)[O-])c3)cc12 [Compound 40, 4-chloro-N-[2-(3,4-dihydroxyphenyl)-3-hydroxy-4-oxo-4H-chromen-6-yl]-3-nitrobenzenesulfonamide] | 80 | 2.5
O=c1c(O)c(-c2ccc(O)c(O)c2)oc2ccc(NS(=O)(=O)CCCCl)cc12 [Compound 41, 3-chloro-N-[2-(3,4-dihydroxyphenyl)-3-hydroxy-4-oxo-4H-chromen-6-yl]-1-propanesulfonamide] | 20 | 6.5
O=c1c(O)c(-c2ccc(O)c(O)c2)oc2ccc(NS(=O)(=O)c3ccc(F)cc3F)cc12 [Compound 42, N-[2-(3,4-dihydroxyphenyl)-3-hydroxy-4-oxo-4H-chromen-6-yl]-2,4-difluorobenzenesulfonamide] | 46 | 4.3
O=C(O)c1ccc(S(=O)(=O)Nc2ccc3oc(-c4ccc(O)c(O)c4)c(O)c(=O)c3c2)cc1 [Compound 45, 4-({[2-(3,4-dihydroxyphenyl)-3-hydroxy-4-oxo-4H-chromen-6-yl]amino}sulfonyl)benzoic acid] | 28.2 | 6
O=c1c(O)c(-c2ccc(O)c(O)c2)oc2ccc(NS(=O)(=O)NC3CCCCC3)cc12 [Compound 47, N-Cyclohexyl-N′-[2-(3,4-dihydroxyphenyl)-3-hydroxy-4-oxo-4H-chromen-6-yl]sulfamide] | 65 | 2

The next lines start with the values.

IC50 (CDK2/cyclin A) [µM] | IC50 (CDK4/cyclin D1) [µM] | Structure (SMILES)
19 | 2.6 | O=c1c(O)c(-c2ccc(O)c(O)c2)oc2ccc(NS(=O)(=O)c3ccc(F)c(F)c3)cc12 [Compound 38, N-[2-(3,4-dihydroxyphenyl)-3-hydroxy-4-oxo-4H-chromen-6-yl]-3,4-difluorobenzenesulfonamide]
8.6 | 2.1 | O=c1c(O)c(-c2ccc(O)c(O)c2)oc2ccc(NS(=O)(=O)c3ccc(F)cc3)cc12 [Compound 43, N-[2-(3,4-dihydroxyphenyl)-3-hydroxy-4-oxo-4H-chromen-6-yl]-4-fluorobenzenesulfonamide]
4.1 | 2.3 | O=C(N1CCc2ccc(S(=O)(=O)Nc3ccc4oc(-c5ccc(O)c(O)c5)c(O)c(=O)c4c3)cc2C1)C(F)(F)F [Compound 44, N-[2-(3,4-dihydroxyphenyl)-3-hydroxy-4-oxo-4H-chromen-6-yl]-2-(2,2,2-trifluoroacetyl)-1,2,3,4-tetrahydro-7-isoquinolinesulfonamide]
82 | 6.3 | O=c1c(O)c(-c2ccc(O)c(O)c2)oc2ccc(NS(=O)(=O)c3ccc4c(c3)CNCC4)cc12 [Compound 46, N-[2-(3,4-dihydroxyphenyl)-3-hydroxy-4-oxo-4H-chromen-6-yl]-1,2,3,4-tetrahydro-7-isoquinolinesulfonamide]
